Experimental data taken from patent US20180271097A1, “HETEROCYCLIC TRIFLUOROALKENYL COMPOUNDS HAVING A NEMATOCIDAL ACTIVITY, THEIR AGRONOMIC COMPOSITIONS AND USE THEREOF” (ISAGRO S.P.A., priority 2015, published 2018).

Assays:
[1] = test system: tomatoes; assay: Phytotoxicity on tomatoes, application with already cultivating crop; format: in vivo, tomato; settings: zero = no symptoms, 10 = plant destroyed
Procedure: The product was evaluated considering the possible phytotoxic effects that can jeopardize the development of the plant (a zero-ten scale was used wherein: zero=no symptoms, 10=plant destroyed) and the effectiveness with respect to nematodes. Table 6 indicates the results relating to phytotoxicity on tomatoes applying compounds 1, 2, 6, 9, 71, 75, 76 and CR1 with already cultivating crop: […]

[2] = test system: Meloidogyne spp.; assay: Nematocidal activity against Meloidogyne spp., application 7 days before transplantation (tomato in pots); format: in vivo; settings: tomatoes, 4,000 g/hectare, treatment 7 days before transplantation; for Root development: 60 days after transplantation, 100% = development of comparative healthy root; for Height of plant (cm) / Gall index (scale 0-10): assessment 60 days after transplantation; for Gall index (scale 0-10): Bridge and Page scale, 0 = 0% affected root, 10 = 100% infested root
Procedure: Determination of the Nematocidal Activity Against Meloidogyne Spp. (Application 7 Days Before Transplantation)
(§1) The tests, aimed at testing the nematocidal activity of the product under consideration, were carried out using inocula taken from a breeding of Meloidogyne spp. maintained on tomato and tobacco plants in pots and grown in a greenhouse.
(§2) In order to perform the experiments, portions of roots having a large number of galls, and ground, in which larvae are present, starting from the second stage of age, were collected from the infested pots.
(§3) New pots having a diameter of 15 cm were half-filled with sterile earth. The portions of infested roots, previously cleaned, were positioned on the same in order to correctly evaluate the degree of infestation and ensure that each pot contained the same nematic charge. 200-300 g of infested earth were then added and subsequently covered with a thin layer of sterile earth.
(§4) The treatment was effected by pouring, onto the surface of the ground, 100 ml of solution in which the product to be tested was dissolved.
(§5) Tomato seedlings at a stage of two-three true leaves were transplanted into the pots thus prepared. Different tomato cultivars were adopted, having a different sensitivity to the parasite and with different growth rates. In particular, an ornamental variety (cv Microtom) was used for evaluating the final production, whose seedlings have reduced dimensions and are capable of reaching maturity of the fruit in pots and under greenhouse conditions, in about two months.
The evaluation of the product under consideration was effected by treating the pots 7 days before transplantation (according to what is indicated in the label of the commercial reference product NIMITZ® (Fluensulfone)).
The product was evaluated considering the possible phytotoxic effects that can jeopardize the development of the plant (a zero-ten scale was used wherein: zero=no symptoms, 10=plant destroyed) and the effectiveness with respect to nematodes.
(§6) The capacity of limiting the parasite was detected, at a distance of 30 and 60 days after transplanting, considering the development of the root system (wherein 100% is the development reached by the comparative healthy root) and the presence of galls on the roots. The presence of galls in the roots was estimated using the infestation scale proposed by Bridge and Page, in which the value zero corresponds to 0% of affected root and the value of 10 corresponds to 100% of infested root.
Table 2 indicates the results relating to the effectiveness of Compounds 1, 2 and 22 and Compounds CR1, CR2, CR3 on tomatoes at a dosage of 4,000 g/hectare, effecting the assessment 60 days after the transplantation.

[3] = test system: Meloidogyne spp.; assay: Nematocidal activity against Meloidogyne spp., application with already cultivating crop (tomato in pots); format: in vivo; settings: tomatoes, 4,000 g/hectare, repeated treatment after transplantation (already cultivating crop); for Root development: 60 days after transplantation, 100% = healthy root; for Gall index (scale 0-10) / Weight of plant: survey 60 days after transplantation
Procedure: as §1, §2, §3, §4, §5, §6
Determination of the Nematocidal Activity Against Meloidogyne Spp. (Application with Already Cultivating Crop)
The same experimental procedure as Example 4 was adopted for evaluating the nematocidal activity of the products under examination, except for the fact that this evaluation was effected by applying the product during the development of the seedlings (according to what is indicated in the label of the commercial reference product VYDATE® (Oxamil)).
Table 5 indicates the results relating to the effectiveness of compounds 1, 2, 6 and the compound CR1 on tomatoes at a dose of 4,000 g/hectare effecting the survey 60 days after transplantation.

[4] = test system: Meloidogyne spp.; assay: Nematocidal activity against Meloidogyne spp., application at the moment of transplantation (tomato in pots); format: in vivo; settings: tomatoes, 4,000 g/hectare, 1 treatment at the moment of transplantation; for Root development: 60 days after transplantation, 100% = healthy root; for Gall index (scale 0-10) / Weight of plant: survey 60 days after transplantation
Procedure: as §1, §2, §3, §4, §5, §6
Determination of the Nematocidal Activity Against Meloidogyne Spp. (Application at the Moment of Transplantation)
The same experimental procedure as Example 4 was adopted for evaluating the nematocidal activity of the products under examination, except for the fact that this evaluation was effected by applying the product at the moment of transplantation.
Tables 3 and 4 indicate the results relating to the effectiveness of compounds 9, 10, 71, 75, 76 and the reference compound CR1 on tomatoes at a dose of 4,000 g/hectare effecting the survey 60 days after transplantation.

| Structure (SMILES) | Phytotoxicity (scale 0-10) [1] | Root development [2] | Height of plant (cm) [2] | Gall index (scale 0-10) [2] | Root development [3] | Gall index (scale 0-10) [3] | Weight of plant [3] | Root development ([4]; Table 3 test) | Gall index (scale 0-10) ([4]; Table 3 test) | Weight of plant ([4]; Table 3 test) | Root development ([4]; Table 4 test) | Gall index (scale 0-10) ([4]; Table 4 test) | Weight of plant ([4]; Table 4 test) |
| --- | --- | --- | --- | --- | --- | --- | --- | --- | --- | --- | --- | --- | --- |
| Cc1nnc(S(=O)(=O)CCC(F)=C(F)F)s1 [Nr 2, 2-(3,4,4-trifluoro-3-butenylsulfonyl)-5-methyl-1,3,4-thiadiazole] | 0 scale 0-10 | 95% | 76 cm | 1.0 scale 0-10 | 100% | 0.0 scale 0-10 | 33 g |  |  |  |  |  |  |
| O=S(=O)(CCC(F)=C(F)F)c1nnc(Cl)s1 [Nr 22, 2-(3,4,4-trifluoro-3-butenylsulfonyl)-5-chloro-1,3,4-thiadiazole] |  | 90% | 73 cm | 1.5 scale 0-10 |  |  |  |  |  |  |  |  |  |
| CC(C)Cc1nnc([S+]([O-])CCC(F)=C(F)F)s1 (stereo not shown) [Nr 9] | 0 scale 0-10 |  |  |  |  |  |  | 70% | 2.0 scale 0-10 | 116 g |  |  |  |
| CC(C)Cc1nnc(S(=O)(=O)CCC(F)=C(F)F)s1 [Nr 10] |  |  |  |  |  |  |  | 75% | 2.0 scale 0-10 | 88 g |  |  |  |
| CC1(C)CC([S+]([O-])CCC(F)=C(F)F)=NO1 (stereo not shown) [Nr 75] | 0 scale 0-10 |  |  |  |  |  |  |  |  |  | 100% | 1.0 scale 0-10 | 50 g |
| O=S(=O)(CCC(F)=C(F)F)c1ncc(Cl)s1 [CR1, 5-chloro-2-(3,4,4-trifluoro-3-butenylsulfonyl)-thiazole, reference compound] | 3 scale 0-10 | 70% | 71 cm | 2.0 scale 0-10 | 32% | 1.5 scale 0-10 | 25 g | 60% | 1.5 scale 0-10 | 62 g | 80% | 1.0 scale 0-10 | 50 g |
| CC1(C)CC(S(=O)(=O)CCC(F)=C(F)F)=NO1 [Nr 76] | 0 scale 0-10 |  |  |  |  |  |  |  |  |  | 100% | 1.5 scale 0-10 | 51 g |
| CC(C)c1nnc(S(=O)(=O)CCC(F)=C(F)F)s1 [Nr 6] | 0 scale 0-10 |  |  |  | 95% | 2.0 scale 0-10 | 40 g |  |  |  |  |  |  |
| Cc1nnc([S+]([O-])CCC(F)=C(F)F)s1 (stereo not shown) [Nr 1, 2-(3,4,4-trifluoro-3-butenylsulfinyl)-5-methyl-1,3,4-thiadiazole] | 0 scale 0-10 | 95% | 75 cm | 1.0 scale 0-10 | 100% | 1.0 scale 0-10 | 36 g |  |  |  |  |  |  |
| Cc1nnc(S(=O)(=O)CCC=C(F)F)s1 [CR3, 2-(4,4-difluoro-3-butenylsulfonyl)-5-methyl-1,3,4-thiadiazole, reference compound] |  | 75% | 70 cm | 1.5 scale 0-10 |  |  |  |  |  |  |  |  |  |
| Cc1nnc(SCCC(F)=C(F)F)s1 [CR2, 2-(3,4,4-trifluoro-3-butenylthio)-5-methyl-1,3,4-thiadiazole, reference compound] |  | 70% | 60 cm | 2.0 scale 0-10 |  |  |  |  |  |  |  |  |  |
